Here are results for one molecule from paper PMC9350903 (ACS chemical neuroscience, 2021).

Data set [1] relates to CSF-1R. The conditions noted are these: cited from earlier work.
Data set [2] has as its target T1, CSF-1R (Rattus norvegicus, UniProt Q00495).
T1 sequence (Q00495 20-978): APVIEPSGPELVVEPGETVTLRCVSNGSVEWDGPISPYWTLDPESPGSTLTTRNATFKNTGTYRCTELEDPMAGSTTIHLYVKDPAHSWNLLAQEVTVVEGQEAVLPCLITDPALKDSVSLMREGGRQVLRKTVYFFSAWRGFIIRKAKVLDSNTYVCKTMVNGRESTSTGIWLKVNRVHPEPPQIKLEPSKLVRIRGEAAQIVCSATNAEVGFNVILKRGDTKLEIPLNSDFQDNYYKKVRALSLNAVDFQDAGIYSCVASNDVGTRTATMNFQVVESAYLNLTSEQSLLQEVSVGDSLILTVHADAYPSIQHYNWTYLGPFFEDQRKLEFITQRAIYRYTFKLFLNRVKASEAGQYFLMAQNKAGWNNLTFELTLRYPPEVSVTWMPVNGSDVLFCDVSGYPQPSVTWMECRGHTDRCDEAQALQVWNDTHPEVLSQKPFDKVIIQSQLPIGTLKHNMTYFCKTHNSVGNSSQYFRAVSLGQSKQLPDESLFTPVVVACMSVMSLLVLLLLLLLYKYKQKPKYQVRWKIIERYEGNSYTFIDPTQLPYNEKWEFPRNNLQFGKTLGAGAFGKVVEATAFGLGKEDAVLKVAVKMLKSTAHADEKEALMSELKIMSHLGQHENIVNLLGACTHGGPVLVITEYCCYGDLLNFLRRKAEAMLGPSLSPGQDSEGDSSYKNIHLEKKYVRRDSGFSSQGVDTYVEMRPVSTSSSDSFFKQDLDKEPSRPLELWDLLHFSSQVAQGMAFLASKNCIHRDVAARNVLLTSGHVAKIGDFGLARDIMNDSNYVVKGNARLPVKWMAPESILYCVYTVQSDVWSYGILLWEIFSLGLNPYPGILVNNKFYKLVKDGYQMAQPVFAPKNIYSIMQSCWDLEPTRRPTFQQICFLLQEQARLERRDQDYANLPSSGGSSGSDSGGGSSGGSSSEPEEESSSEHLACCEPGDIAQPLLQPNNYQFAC
In words: [^3H]CPPC autoradiography in intrastriatal LPS rat brain tissues. Type of data set: binding. The conditions noted are these: ipsilateral hemisphere of 30-day LPS rat brain; 10 μM competitor; [^3H]CPPC 3 nM.

For data set [3] the following is noted: oral administration; non-human primates; cited from earlier work.
The subject of the next data set is c-kit. The conditions noted are these: cited from earlier work.

Take `FC(F)(F)c1ccc(CNc2ccc(Cc3c[nH]c4ncc(Cl)cc34)cn2)cn1` [PLX3397, 5-((5-chloro-1H-pyrrolo[2,3-b]pyridin-3-yl)methyl)-N-((6-(trifluoromethyl)pyridin-3-yl)methyl)pyridin-2-amine]: the “affinity for CSF-1R” value in the data set with CSF-1R [1] is 10 nM. Moreover, on CSF-1R [2], the “inhibition of [^3H]CPPC binding” value was 15%. Further, in data set [3], the “presence in cerebrospinal fluid” value is on record as “observed in cerebrospinal fluid, albeit at low concentrations”. The affinity for c-kit with c-kit is reported as 20 nM.
